One block for each compound: values may come before it. The source made the active and inactive calls.
Legend:
[1] = growth suppression of PTEN-null colon cells, dose response, cell-based, HCT116 PTEN knockout (AID 1047); assay type: functional;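 further: HCT116 colon tumor cells with PTEN knocked out; cells exposed to compound for 60 hours before readout; potency for loss of cell viability measured by luminescence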
[2] = growth suppression of beta-catenin-knockout colon cells, dose response, cell-based, HCT116, human colon tumor (AID 1045); assay type: functional;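 further: HCT116 colon tumor cells with beta catenin knocked out; cells exposed to compound for 60 hours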
[3] = target: Sphingosine 1-phosphate receptor 2 (Homo sapiens, UniProt O95136); experiment: Dose Response Cell Based Assay for Agonists of the S1P2 Receptor. [Related pubchem assays: 729, 736, 843 ]; assay type: functional
Sequence of Sphingosine 1-phosphate receptor 2 (O95136 whole entry): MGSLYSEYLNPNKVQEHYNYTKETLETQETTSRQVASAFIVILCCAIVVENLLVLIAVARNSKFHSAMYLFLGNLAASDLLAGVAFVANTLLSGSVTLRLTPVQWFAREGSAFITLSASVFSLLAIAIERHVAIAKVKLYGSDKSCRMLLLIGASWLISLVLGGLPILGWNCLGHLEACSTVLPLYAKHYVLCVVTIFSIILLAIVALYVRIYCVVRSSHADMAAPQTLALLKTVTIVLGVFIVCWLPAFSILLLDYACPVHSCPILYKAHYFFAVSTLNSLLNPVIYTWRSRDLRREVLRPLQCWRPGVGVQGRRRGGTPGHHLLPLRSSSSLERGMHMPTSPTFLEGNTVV

[4] = Luminescence Cell-Based Dose Retest to Confirm Inhibitors of Cancer Stem Cells. [Related pubchem assays (depositor defined):AID2717, AID2721]; assay type: functional; conditions: Homo sapiens
[5] = ADAM10 inhibitors, peptide cleavage, dose response, biochemical, QFRET (AID 743254);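 further: ADAM10 enzyme with the DM2 quenched FRET peptide as substrate; EDANS fluorescence gain as the protease cuts the substrate; inhibitor potency against ADAM10 proteolytic activity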
[6] = target: Disintegrin and metalloproteinase domain-containing protein 17 (Homo sapiens, UniProt P78536); experiment: ADAM17 protease inhibitors, dose response, counter-screen for ADAM10 exosite inhibitor project, biochemical, quenched FRET substrate (AID 743253)
Sequence of Disintegrin and metalloproteinase domain-containing protein 17 (P78536 whole entry, the tested form may be a part): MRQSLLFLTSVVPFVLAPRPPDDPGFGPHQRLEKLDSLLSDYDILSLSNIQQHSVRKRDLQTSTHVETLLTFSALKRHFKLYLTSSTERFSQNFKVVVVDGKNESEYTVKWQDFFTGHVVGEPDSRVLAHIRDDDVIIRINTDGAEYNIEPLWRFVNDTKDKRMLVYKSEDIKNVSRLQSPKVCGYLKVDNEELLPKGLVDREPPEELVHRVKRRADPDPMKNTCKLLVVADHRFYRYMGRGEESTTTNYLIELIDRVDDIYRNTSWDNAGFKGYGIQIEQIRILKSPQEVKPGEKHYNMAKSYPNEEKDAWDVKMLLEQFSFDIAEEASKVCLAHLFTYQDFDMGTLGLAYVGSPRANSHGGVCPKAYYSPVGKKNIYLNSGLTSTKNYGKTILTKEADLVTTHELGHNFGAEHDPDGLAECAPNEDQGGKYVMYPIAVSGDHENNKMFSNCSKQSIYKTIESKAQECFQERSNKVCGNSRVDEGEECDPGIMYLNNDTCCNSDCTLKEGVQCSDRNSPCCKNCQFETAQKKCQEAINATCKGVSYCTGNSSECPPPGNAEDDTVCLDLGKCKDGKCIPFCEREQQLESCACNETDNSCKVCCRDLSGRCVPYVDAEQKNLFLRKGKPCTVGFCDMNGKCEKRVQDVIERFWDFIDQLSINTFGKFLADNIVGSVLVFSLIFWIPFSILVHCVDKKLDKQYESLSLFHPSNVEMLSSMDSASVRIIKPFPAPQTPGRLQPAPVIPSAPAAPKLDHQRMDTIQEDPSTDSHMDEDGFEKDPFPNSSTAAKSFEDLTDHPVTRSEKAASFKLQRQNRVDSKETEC

[7] = target: T1, Caspase-3 (Homo sapiens, UniProt P42574); assay type: functional;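 further: Dose-response selectivity test against caspase-3 for candidate inhibitors of sentrin-specific proteases (SENPs)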
T1 sequence (P42574 whole entry): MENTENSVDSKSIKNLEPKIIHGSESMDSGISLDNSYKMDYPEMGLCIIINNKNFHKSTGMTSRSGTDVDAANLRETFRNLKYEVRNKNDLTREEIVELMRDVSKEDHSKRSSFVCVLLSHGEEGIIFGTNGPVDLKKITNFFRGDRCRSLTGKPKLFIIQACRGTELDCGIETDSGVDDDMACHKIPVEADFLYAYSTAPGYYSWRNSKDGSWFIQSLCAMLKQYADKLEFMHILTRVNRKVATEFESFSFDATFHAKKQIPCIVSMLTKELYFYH

[8] = target: T2, Sentrin-specific protease 7 (Homo sapiens, UniProt Q9BQF6); assay type: functional;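 further: Luminescence-based dose-response confirmation of ultra-high-throughput screening hits, measuring inhibition of SENP7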
T2 sequence (Q9BQF6 whole entry): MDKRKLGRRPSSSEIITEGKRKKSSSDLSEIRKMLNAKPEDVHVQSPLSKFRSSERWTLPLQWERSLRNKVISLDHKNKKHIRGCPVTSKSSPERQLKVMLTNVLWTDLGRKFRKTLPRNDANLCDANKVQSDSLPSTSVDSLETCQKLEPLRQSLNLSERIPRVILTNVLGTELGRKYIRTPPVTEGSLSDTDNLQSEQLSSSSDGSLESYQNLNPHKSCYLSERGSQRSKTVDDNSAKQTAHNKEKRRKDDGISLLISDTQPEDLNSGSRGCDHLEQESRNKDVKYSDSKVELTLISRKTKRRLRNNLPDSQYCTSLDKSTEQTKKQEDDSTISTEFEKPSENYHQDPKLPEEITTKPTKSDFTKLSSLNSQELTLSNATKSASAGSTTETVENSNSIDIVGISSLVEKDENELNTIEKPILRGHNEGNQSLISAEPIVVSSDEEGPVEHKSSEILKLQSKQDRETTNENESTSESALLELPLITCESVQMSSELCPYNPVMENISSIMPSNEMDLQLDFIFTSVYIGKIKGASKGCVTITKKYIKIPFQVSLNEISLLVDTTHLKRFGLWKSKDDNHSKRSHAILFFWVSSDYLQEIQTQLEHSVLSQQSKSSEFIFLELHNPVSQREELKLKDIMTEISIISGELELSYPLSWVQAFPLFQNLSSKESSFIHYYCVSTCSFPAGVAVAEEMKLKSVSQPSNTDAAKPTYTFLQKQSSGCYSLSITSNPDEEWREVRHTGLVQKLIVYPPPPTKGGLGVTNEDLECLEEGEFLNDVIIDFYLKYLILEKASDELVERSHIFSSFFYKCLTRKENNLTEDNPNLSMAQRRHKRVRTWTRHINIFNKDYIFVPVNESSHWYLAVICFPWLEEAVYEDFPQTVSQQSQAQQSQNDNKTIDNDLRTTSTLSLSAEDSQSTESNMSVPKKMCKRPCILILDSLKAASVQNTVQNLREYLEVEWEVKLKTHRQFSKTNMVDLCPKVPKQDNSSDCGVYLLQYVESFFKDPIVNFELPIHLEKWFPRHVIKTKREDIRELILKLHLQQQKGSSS

[9] = target: T3, Sentrin-specific protease 6 (Homo sapiens, UniProt Q9GZR1); assay type: functional;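 further: Luminescence-based dose-response confirmatory assay of SENP6 inhibition, following up an ultra-high-throughput screen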
T3 sequence (Q9GZR1 whole entry): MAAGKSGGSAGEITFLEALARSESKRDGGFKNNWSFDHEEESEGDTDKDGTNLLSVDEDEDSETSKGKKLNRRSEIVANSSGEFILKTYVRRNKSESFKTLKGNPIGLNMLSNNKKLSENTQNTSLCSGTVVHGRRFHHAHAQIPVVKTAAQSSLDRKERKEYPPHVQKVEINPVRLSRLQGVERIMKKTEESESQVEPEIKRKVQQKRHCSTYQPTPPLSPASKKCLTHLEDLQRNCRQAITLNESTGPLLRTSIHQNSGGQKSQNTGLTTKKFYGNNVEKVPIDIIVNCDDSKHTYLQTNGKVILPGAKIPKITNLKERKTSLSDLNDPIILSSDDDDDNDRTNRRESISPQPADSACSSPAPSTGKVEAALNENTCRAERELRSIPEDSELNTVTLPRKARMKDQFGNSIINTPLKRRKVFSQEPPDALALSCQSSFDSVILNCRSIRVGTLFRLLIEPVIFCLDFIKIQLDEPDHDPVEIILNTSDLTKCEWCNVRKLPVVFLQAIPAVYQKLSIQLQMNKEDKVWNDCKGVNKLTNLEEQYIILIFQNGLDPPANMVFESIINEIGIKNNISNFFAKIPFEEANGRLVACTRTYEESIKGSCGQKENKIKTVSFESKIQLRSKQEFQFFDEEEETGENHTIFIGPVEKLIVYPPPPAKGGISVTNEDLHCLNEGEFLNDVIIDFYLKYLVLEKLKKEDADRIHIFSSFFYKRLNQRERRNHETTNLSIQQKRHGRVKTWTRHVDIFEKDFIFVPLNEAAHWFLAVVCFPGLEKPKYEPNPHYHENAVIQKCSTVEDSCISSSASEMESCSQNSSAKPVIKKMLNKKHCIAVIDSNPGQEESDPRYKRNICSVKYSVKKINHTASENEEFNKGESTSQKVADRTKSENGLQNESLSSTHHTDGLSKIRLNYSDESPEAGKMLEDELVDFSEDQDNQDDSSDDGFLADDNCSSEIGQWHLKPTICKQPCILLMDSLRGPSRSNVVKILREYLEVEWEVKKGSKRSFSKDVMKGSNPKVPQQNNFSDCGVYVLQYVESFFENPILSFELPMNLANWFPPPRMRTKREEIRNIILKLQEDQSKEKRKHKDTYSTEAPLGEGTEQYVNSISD

[10] = target: T4, Sentrin-specific protease 8 (Homo sapiens, UniProt Q96LD8); assay type: functional;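 further: luminescence read-out of SENP8 inhibition, dose-response confirmation following an ultra-high-throughput screen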
T4 sequence (Q96LD8 whole entry): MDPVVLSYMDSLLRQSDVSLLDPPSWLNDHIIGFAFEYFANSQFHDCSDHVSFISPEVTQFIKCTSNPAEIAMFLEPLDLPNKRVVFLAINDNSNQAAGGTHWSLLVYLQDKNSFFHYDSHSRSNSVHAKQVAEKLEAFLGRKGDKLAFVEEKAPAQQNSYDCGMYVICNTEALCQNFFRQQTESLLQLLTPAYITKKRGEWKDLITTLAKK

[11] = target: T5, Mitochondrial peptide methionine sulfoxide reductase (Bos taurus, UniProt P54149); experiment: Absorbance-based biochemical high throughput dose response assay for activators of Methionine sulfoxide reductase A (MsrA).; assay type: functional
T5 sequence (P54149 whole entry): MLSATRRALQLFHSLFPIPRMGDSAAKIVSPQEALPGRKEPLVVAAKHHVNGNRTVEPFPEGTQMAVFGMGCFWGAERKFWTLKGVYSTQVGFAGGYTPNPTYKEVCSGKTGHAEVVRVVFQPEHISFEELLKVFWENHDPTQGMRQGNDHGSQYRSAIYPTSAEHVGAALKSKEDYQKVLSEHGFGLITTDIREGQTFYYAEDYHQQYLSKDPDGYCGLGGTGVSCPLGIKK

[12] = target: T6, Caspase-6 (Homo sapiens, UniProt P55212); experiment: human caspase-6 inhibitors, dose response, biochemical, VEID-R110 fluorescence, cherry-pick (AID 720632)
T6 sequence (P55212 whole entry): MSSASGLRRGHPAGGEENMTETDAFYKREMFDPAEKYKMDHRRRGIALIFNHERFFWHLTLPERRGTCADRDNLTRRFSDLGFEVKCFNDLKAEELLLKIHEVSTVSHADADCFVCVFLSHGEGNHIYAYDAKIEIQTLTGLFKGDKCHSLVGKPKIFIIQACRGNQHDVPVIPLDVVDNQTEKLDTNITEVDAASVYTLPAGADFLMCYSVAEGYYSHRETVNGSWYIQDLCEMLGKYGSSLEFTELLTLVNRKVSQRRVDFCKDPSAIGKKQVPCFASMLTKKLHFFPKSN

[13] = target: Caspase-9 (Homo sapiens, UniProt P55211); experiment: caspase-9 enzyme inhibition, dose response, selectivity assay for caspase-6 inhibitor project, biochemical, fluorescence, plate reader, cherry-picked samples (AID 743293)
Sequence of Caspase-9 (P55211 1-315 limits assumed): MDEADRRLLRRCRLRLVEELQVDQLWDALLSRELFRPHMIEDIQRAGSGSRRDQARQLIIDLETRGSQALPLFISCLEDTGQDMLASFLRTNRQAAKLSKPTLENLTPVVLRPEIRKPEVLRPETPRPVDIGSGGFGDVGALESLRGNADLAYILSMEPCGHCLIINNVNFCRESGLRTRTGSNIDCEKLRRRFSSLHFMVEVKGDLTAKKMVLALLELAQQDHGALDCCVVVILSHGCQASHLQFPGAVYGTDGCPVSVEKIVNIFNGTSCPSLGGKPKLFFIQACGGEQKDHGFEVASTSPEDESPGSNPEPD
Sequence of Caspase-9 (P55211 331-416 limits assumed): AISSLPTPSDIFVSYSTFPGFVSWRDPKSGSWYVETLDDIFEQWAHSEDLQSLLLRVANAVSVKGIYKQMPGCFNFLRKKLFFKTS

[14] = target: Caspase-7 (Homo sapiens, UniProt P55210); experiment: human caspase-7 inhibitors, dose response, selectivity assay for caspase-6 inhibitor project, biochemical, DEVD-R110 fluorescence, cherry-pick (AID 743295)
Sequence of Caspase-7 (P55210 24-198 limits assumed): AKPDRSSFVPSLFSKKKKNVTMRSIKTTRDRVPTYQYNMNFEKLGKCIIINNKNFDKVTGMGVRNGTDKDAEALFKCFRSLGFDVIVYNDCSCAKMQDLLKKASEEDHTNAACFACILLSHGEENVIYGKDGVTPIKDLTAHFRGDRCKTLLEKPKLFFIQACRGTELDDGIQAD
Sequence of Caspase-7 (P55210 207-303 limits assumed): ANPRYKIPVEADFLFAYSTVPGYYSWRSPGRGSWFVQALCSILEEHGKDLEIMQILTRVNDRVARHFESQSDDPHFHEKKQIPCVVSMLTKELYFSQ

[15] = target: Caspase-8 (Homo sapiens, UniProt Q14790); experiment: caspase-8 inhibition counter-screen, dose response, selectivity assay for caspase-6 inhibitor project, biochemical, Z-IETD-R110 fluorescence, cherry-picked samples (AID 743294)
Sequence of Caspase-8 (Q14790 217-374 limits assumed): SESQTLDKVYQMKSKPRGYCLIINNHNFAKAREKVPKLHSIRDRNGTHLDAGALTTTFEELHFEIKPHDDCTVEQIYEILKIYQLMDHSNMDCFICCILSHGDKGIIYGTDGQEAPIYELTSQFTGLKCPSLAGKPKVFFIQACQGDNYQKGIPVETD
Sequence of Caspase-8 (Q14790 385-479 limits assumed): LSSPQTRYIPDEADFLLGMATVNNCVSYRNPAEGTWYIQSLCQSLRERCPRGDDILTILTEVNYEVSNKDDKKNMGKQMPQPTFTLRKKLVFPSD

[16] = target: T7, Tyrosine-protein phosphatase non-receptor type 7 (Homo sapiens, UniProt P35236); experiment: inhibitors of human HePTP phosphatase, […], biochemical, absorbance, leukemia target (AID 521); assay type: functional
T7 sequence (P35236 whole entry): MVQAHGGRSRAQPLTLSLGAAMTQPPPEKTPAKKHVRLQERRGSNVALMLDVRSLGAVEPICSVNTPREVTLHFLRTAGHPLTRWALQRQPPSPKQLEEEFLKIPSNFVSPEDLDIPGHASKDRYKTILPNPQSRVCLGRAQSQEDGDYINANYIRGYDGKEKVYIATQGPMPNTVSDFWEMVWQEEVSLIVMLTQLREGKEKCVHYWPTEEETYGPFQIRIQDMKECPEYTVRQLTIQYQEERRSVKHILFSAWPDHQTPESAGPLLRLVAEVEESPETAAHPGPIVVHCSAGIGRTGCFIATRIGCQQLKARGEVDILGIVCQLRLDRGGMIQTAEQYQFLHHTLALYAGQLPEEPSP

[17] = target: T8, Polyadenylate-binding protein 1 (Homo sapiens, UniProt P11940); experiment: PABP1 MLLE–PAM2 interaction inhibitors, dose response, miRNA deadenylation inhibitor project, biochemical, fluorescence polarization, Cy5-PAM2 peptide, secondary (AID 602260); assay type: functional; conditions: read-out: IC50_Mean
T8 sequence (P11940 whole entry): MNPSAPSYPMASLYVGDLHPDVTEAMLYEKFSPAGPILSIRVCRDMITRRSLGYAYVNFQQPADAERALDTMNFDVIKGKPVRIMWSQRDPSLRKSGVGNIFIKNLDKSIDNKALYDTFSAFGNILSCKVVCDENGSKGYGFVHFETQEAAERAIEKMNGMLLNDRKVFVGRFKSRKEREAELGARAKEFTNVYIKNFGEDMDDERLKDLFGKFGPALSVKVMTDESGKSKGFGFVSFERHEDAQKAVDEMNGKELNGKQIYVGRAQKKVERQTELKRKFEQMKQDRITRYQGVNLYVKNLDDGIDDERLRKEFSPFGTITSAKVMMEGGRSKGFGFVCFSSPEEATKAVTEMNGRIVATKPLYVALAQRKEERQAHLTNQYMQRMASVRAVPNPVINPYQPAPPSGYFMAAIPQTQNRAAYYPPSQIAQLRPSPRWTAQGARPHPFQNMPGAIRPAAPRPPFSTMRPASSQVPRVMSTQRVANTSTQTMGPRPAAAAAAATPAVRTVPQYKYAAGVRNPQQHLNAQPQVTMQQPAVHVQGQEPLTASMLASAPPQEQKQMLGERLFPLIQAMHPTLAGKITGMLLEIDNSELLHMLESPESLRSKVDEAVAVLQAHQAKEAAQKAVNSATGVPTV

[18] = target: T8, Polyadenylate-binding protein 1; experiment: PABP1 MLLE–PAM2 binding inhibitor potency, dose response, biochemical, fluorescence polarization, FITC-PAM2 peptide (AID 602259); assay type: functional; conditions: read-out: IC50_Mean
[19] = target: Metabotropic glutamate receptor 7 (Homo sapiens, UniProt Q14831); experiment: mGlu7 positive allosteric modulators, dose response, cell-based, calcium mobilization, Galpha15 (AID 743384); assay type: functional
Sequence of Metabotropic glutamate receptor 7 (Q14831 whole entry): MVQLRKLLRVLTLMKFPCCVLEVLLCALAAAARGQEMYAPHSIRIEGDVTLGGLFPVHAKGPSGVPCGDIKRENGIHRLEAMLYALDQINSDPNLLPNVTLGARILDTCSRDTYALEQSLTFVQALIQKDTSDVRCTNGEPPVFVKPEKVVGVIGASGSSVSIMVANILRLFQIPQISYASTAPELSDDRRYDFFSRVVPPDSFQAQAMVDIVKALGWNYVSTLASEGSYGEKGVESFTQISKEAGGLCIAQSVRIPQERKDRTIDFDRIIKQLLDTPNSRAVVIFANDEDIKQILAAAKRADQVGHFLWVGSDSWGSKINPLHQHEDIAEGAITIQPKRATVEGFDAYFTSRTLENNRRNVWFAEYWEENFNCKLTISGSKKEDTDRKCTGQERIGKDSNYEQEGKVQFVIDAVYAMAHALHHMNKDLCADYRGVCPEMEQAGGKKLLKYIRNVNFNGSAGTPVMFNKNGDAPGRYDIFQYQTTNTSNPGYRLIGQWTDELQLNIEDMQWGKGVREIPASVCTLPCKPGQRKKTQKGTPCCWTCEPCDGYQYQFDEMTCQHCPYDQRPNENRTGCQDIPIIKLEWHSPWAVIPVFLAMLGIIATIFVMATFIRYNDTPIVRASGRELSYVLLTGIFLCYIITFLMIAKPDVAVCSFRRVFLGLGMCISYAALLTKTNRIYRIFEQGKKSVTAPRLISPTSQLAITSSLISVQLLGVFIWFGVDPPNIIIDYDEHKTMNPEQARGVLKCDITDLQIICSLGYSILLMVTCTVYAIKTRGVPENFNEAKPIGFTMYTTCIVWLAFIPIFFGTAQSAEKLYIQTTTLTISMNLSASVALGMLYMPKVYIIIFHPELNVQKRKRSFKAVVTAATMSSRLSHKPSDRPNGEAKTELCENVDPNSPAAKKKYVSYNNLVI

Structure (SMILES): COc1ccc(C(c2c[nH]c3ccccc23)c2c[nH]c3ccccc23)cc1O
- EC50 [1]: 31 µM (active)
- EC50 [2]: 558 µM (active)
- EC50 [3]: > 50 µM (not active)
- AC50 [4]: 4.09 µM (active)
- IC50 [5]: > 69.5 µM (inactive)
- IC50 [6]: > 69.5 µM (inactive)

- IC50 [7]: 8.76 µM (active)
- IC50 [8]: 6.5 µM (active)
- IC50 [9]: 4.39 µM (active)
- EC50 [11]: 57.5 µM (inactive)
- AC50 [12]: 2.49 µM (active)
- AC50 [13]: 25.5 µM (active)
- AC50 [14]: 17.4 µM (active)
- AC50 [15]: 25.5 µM (active)
Structure (SMILES): O=C(COC(=O)c1ccc([N+](=O)[O-])s1)Nc1ccccc1
- IC50 [10]: 4.04 µM (active)

- IC50 [16]: > 100 µM (not active)
Structure (SMILES): O=C(NCc1ccc(F)cc1)c1cc2ccccn2n1

- IC50 [17]: > 66 µM (inactive)
- IC50 [18]: > 66 µM (inactive)
- EC50 [19]: 2.4 µM (active)
Structure (SMILES): CC(=O)Nc1ccc(SCC(=O)c2cc(C)n(-c3ccccc3F)c2C)cc1
